Measured values published in patent US20140286964A1, “Methods for Identifying Janus Kinase (JAK) Modulators for Therapeutics” (NEW YORK UNIVERSITY, priority 2011, published 2014).

Key:
Jak2 JH2-WT = molecular target: T1, Jak2 JH2-WT (Homo sapiens, UniProt O60674, F794H/W659A/W777A); assay: mant-ATP binding (decrease of tryptophan emission by FRET) to JH2-WT; details: fluorescent ATP analog mant-ATP, FIG. 5
T1 construct: 6xHis (N); made in house; host or cells: baculovirus-infected Sf9 cells
Procedure: FIG. 5 depicts ATP binding to JH2-WT. The decrease of the tryptophan emission signal at 340 nm (excitation wavelength at 285 nm) resulting from FRET upon mant-ATP binding to JH2 was measured as a function of mant-ATP concentration. The plotted data points are an average of two experiments.
(§1) As a first step in characterizing the catalytic properties of Jak2 JH2, dissociation constants (Kd values) for ATP binding to JH2-WT and -VF were obtained using the fluorescent ATP analog mant-ATP.

Jak2 JH2-VF (V617F) = molecular target: T2, Jak2 JH2-VF (V617F) (Homo sapiens, UniProt O60674, F794H/V617F/W777A); assay: mant-ATP binding to JH2-VF; details: fluorescent ATP analog mant-ATP
T2 construct: 6xHis (N); made in house; host or cells: baculovirus-infected Sf9 cells
Description: as §1

[1] = molecular target: T3, insulin receptor kinase (phosphorylated, active form) (Homo sapiens, UniProt P06213); assay: mant-ATP binding to insulin receptor kinase (comparison)
T3 construct: the insulin receptor kinase (phosphorylated, active form)

JAK2 JH2 (JH2-Peak2) = molecular target: T4, JAK2 JH2 (JH2-Peak2) (Homo sapiens, UniProt O60674); assay: Mant-ATP binding assay (fluorescence) with JH2-Peak2
T4 construct: We produced and purified human Jak2 JH2, residues 513-824, as described previously; 6xHis (C, cleaved yes); made in house; host or cells: Sf9 insect cells (baculovirus, pFASTBAC1)
Procedure: FIG. 13 provides an analysis of JAK2 JH2 autophosphorylation and ATP binding activity. (a) Time-course kinase assay of purified JH2-Peak1 and JH2-Peak2. (b) Time-course kinase assay of purified JH2 S523A and Y570F mutants compared to JH2-Peak2. (c) Fluorescence measurement of ATP binding assay of JAK2 JH2-Peak2. (d) Kd measurement of mant-ATP binding to JH2-Peak2. Graph, mean±s.d. of three independent experiments.
The fluorescence intensity of mant-ATP (Invitrogen) complex with JH2 was measured using FluoroMax-2 spectrofluorimeter. Mant-ATP (1 μM) was added to a buffer solution (20 mM TRIS-HCl, pH 8, 200 mM NaCl, 10% (v/v) glycerol and 0.5 mM TCEP) along with 5 mM MnCl2 and 1 μM JH2 (from peak 2 fraction). The excitation and emission wavelengths were 280 nm and 440 nm, respectively, and emission was scanned from 400-500 nm. For kd measurements, increased concentration of purified JH2 (0.25 μM-6 μM) was added to buffer solution with 5 mM MnCl2 and 1 μM mant-ATP.
If the pseudokinase domain of JAK2 is an active protein kinase, utilizing ATP as a phosphate donor, it should bind ATP with a physiologic Kd value. The binding of ATP to JH2 of JAK2 was evaluated using the fluorescent ATP-analogue mant [2′-(3′)—O—(N-methylanthraniloy)]-ATP. […] Mant-ATP bound to JH2 with a Kd of ˜1 μM (FIG. 13d), which is ˜10% of the reported Kd for JH1 of JAK2 (Hall, et al., Protein Expr. Purif. 2010; 69: 54-63). […]

T4 sequence (O60674 513-824): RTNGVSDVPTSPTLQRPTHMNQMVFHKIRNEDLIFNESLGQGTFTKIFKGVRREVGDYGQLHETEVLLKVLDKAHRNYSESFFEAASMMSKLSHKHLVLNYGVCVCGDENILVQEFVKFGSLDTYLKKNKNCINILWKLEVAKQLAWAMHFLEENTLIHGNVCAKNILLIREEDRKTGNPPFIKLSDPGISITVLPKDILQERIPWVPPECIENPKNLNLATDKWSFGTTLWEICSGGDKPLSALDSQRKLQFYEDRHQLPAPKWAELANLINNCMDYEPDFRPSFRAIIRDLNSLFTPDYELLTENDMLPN
T3 sequence (P06213 1023-1298 limits assumed): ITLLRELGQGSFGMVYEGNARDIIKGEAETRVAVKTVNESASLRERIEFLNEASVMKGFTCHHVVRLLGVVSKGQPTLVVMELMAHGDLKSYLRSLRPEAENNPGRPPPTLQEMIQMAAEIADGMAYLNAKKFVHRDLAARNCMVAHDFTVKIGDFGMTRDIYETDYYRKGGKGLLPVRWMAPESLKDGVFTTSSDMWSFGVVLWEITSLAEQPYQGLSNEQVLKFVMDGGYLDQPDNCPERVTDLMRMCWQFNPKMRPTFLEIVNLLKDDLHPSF
T2 sequence (O60674 536-812 V617F/W777A/F794H): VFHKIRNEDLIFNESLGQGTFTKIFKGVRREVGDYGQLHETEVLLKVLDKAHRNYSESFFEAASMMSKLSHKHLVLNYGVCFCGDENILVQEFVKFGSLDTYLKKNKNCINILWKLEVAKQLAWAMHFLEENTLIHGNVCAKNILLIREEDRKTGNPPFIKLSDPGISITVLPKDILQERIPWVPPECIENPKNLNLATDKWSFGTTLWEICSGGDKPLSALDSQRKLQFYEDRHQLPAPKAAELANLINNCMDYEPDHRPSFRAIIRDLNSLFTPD
T1 sequence (O60674 536-812 W659A/W777A/F794H): as the sequence (O60674 536-812 V617F/W777A/F794H) above, with F82V, W124A counted along it

Kd (Jak2 JH2-WT): 82 nM
Kd (Jak2 JH2-VF (V617F)): 84 nM
Kd fold higher than for JH2 ([1]; insulin receptor kinase Kd versus Jak2 JH2 Kd): ~30 fold
Kd ([1]; insulin receptor kinase, phosphorylated active form, same measurement): 14000 nM
Kd (JAK2 JH2 (JH2-Peak2); JH2-Peak2, 5 mM MnCl2, 1 μM mant-ATP, JH2 0.25-6 μM, FIG. 13d): ~1000 nM
Kd as percentage of the reported Kd for JH1 of JAK2 (JAK2 JH2 (JH2-Peak2); JH2 Kd versus literature Kd for JH1 (Hall et al. 2010)): ~10%
Substance: mant [2′-(3′)—O—(N-methylanthraniloy)]-ATP [mant-ATP]
